Laboratory results published in US7659252B2, “Transdermal delivery peptides and method of use thereof” (Novomed Technologies, Inc. (Shanghai), priority 2005, dated 2010).

Assays:
insulin = target: T1, insulin (Sus scrofa, UniProt P01315); experiment: ELISA direct interaction between TD-1 and insulin (incl. reverse scheme); format: binding, porcine
T1 construct: pharmaceutical-grade (>98%, 30 IU/mg) porcine insulin; purchased Xuzhou Pharmaceuticals
Procedure: Insulin (100 μg) and a guinea pig anti-porcine insulin antibody (Atom High-Tech, used at 1:1000 dilution), in 100 μl of PBS, was added to each well and incubated for 2 hrs. at 37° C. After washing 6× with PBST, the plate was incubated with 1:2000 dilution of anti-guinea pig IgG conjugated with HRP (Chang-Dao Biotechnology Co. Ltd., Shanghai, China) for 1 hr. at 37° C. The plate was washed 6× with PBST, followed by the addition of 100 μl/well of TMB substrate. After incubation at room temperature for 10 mins and additional of stop solution (1 M H2SO4), absorbance was read at 450/630 nm in an ELISA reader. As a positive control, 1 ng to 1 μg of insulin was coated directly on the plates and was detected by the same procedure as described above. In areverse interaction scheme, ELISA plate wells were coated with 1 μg to 1 mg of insulin, blocked with BSA, incubated with TD-1-AngII fusion peptide (100 μg per well), incubated with rabbit polyclonal antibody against human angiotensin II (Atom High-Tech, used at 1:1000) and 1:2000 of anti-rabbit IgG conjugated with HRP (Zhong Shan Golden Bridge Biotechnology, Beijing, China), and finally assayed by TMB color reactionm using the same protocol as described above. The control for this reverse scheme experiment used 1 μg of TD-1-AngII coated directly to the wells.

[1] = tested on: streptozotocin-induced diabetic rats; experiment: Transdermal insulin delivery: serum insulin and blood glucose; format: in vivo, rat
Procedure: Insulin delivery: In particular, male Wistar rats were given intraperitoneal injection of straptozotocin (60 mg/kg; Sigma-Aldrich, St. Louis, […].) to make these rats in diabetic states. Seven to 10 days post injection blood glucose level was measured using One-Touch Ultra Glucometer (LifeScan, Milpitas, Calif.). The straptozocin-induced (SD-induced) diabetic rats with blood glucose level of over 20 mmol/l (normal rats are between 4 and 6 mmol/l) were selected and randomly assigned to different treatment groups, with 6 rats for each group. […] The SLA/PP is a chemical enhancer combination recently identified from high-throughput screening (Karande et al., […], Nature Biotech. 22:192). Moreover, in other transdermal treatment groups, 100 μl saline was given to each rat in that group. For the subcutaneous treatment group, 14 μg of insulin per rat was injected.
Blood was drawn from the rat tail vein at these time points and assayed for blood glucose as described above and serum insulin by radioimmunoassay (Immunotech, Czech).
Blood glucose and serum insulin were measured before and 5 hrs. after the administration as described above.

hair follicles = experiment: Microscopy of skin sections: hair follicle penetration; format: in vivo, rat
Procedure: In particular, Insulin-FITC (Xi-an Huacheng, Xi-an, China) was dissolved in a small amount of DMF and subsequently diluted in saline for topical administration (final DMF concentration was <0.2%). […] After 2 hours the skin was carefully cleaned by 70% isopropyl alcohol and harvested by dissecting. The isolated skin was fixed with ice-cold 4% paraformaldehyde in 0.1 M phosphate buffer (PH 7.4) overnight. Following several washes with 10 mM phosphate-buffered saline (PBS PH7.4), skin samples were immersed in PBS containing 4.5% sucrose for 24 hours and then dehydrated in 10 mM PBS containing 30% sucrose till deposition. Floating horizontal and vertical sections with a thickness of 20 μm were obtained on a freezing microtome (CM1900 LEICA, Heidelberger, Nussloch, Germany). Cryosections were mounted onto poly-L-lysine-coated glasses, dried at room temperature and enveloped with 10 μl […] Mounting Medium (Vector Laboratories, Burlingame, Calif.). Fluorescence photomicrographs of the sections were obtained with OLYMPUS IX-70 microscope (OLYMPUS, Tokyo, Japan) using a filter set having excitation and emission length at 490-495 nm and 520-530 nm, respectively.

^125I-insulin = target: T2, ^125I-insulin (Sus scrofa, UniProt P01315); experiment: Direct interaction between coated TD-1 and ^125I-insulin; format: binding, porcine; settings: up to 1 mg TD-1 per well
T2 construct: purchased Beijing Atom HighTech
T2 sequence (P01315 25-54 limits assumed): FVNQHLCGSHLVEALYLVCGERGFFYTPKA
T2 sequence (P01315 88-108 limits assumed): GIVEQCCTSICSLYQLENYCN
Procedure: After extensive washing with PBST (PBS+0.1% Tween-20), radioactivity was measured with Gamma Radioimmunoassay Counter.

Male Wistar rats = experiment: Phage delivery across trimmed abdominal skin, phage titre in tail-vein blood; format: in vivo, rat
Procedure: Phage delivery: Male Wistar rats (180 g to 220 g) were housed at a constant temperature (22° C.) and relative humidity (60%) with a fixed 12 hr. light/dark cycle, and free access to food and water. While the animals were anesthetized with Vrethane (5 ml/kg of 20% solution), the hair in an area of approximately 3.0 cm×3.0 cm on the abdomen was carefully trimmed using scissors, with caution not to damage the skin (rats with any visible sign of skin damage were not used). […] One hour after the phage administration blood was withdrawn from the tail vein and immediately assayed for phage titre according to manufacturer's protocol.

male Sprague-Dawley rats [2] = experiment: Transdermal PT-141 delivery: penile erections, chasing, mounting; format: in vivo, rat; settings: PT-141 160 μg/kg + peptide 240 μg/kg, cream, 1 h observation
Procedure: All behavioral studies were performed from 9:00 am to 4:00 pm at 24±1° C. While the animals were anesthetized with Urethane, the hair in an area of approximately 3.0 cm×3.0 cm in the interscapular region was carefully trimmed using scissors, with caution not to damage the skin (rats with any visible sign of skin damage were not used). Rats were allowed to recover for at least 24 hours before the experiments. One hundred ul cream containing indicated amounts of PT-141 was placed on the exposed skin and spread evenly using the side of a pipet tip.
Testing rats were divided into four groups with each group contain 6 rats.
Immediately after administration, rats were placed into individual polystyrene cages (32 cm long, 30 cm wide, 30 cm high) for behavioral observation. […] According to methods described by Berendsen and Broekkamp (1987, Eur. J. Pharmacol. 135(3):279-87), a penile erection was present when the following is observed: repeated pelvic thrust immediately followed by an upright position, an emerging engorged penis which the rat licks while eating the ejaculate. In addition, chasing was observed when the male moves forward along the female's side with its mouth licking the female's genital area, while mounting was present when the male's both front feet are off the ground and plant on the female's rump without ejaculation (Naby et al., 1992, Horm. Behav. 26:24; Randy et al., 1995, Nature 378:383).

male Sprague-Dawley rats [3] = experiment: Transdermal apomorphine delivery, APO-induced penile erections; format: in vivo, rat
Procedure: All behavioral studies were performed from 9:00 am to 4:00 pm at 24±1° C. While the animals were anesthetized with Urethane, the hair in an area of approximately 3.0 cm×3.0 cm in the interscapular region was carefully trimmed using scissors, with caution not to damage the skin (rats with any visible sign of skin damage were not used). Rats were allowed to recover for at least 24 hours before the experiments. One hundred ul cream containing indicated amounts of apomorphine (APO) was placed on the exposed skin and spread evenly using the side of a pipet tip.
Immediately after administration, rats were placed into individual polystyrene cages (32 cm long, 30 cm wide, 30 cm high) for behavioral observation. […] According to methods described by Berendsen and Broekkamp (1987, Eur. J. Pharmacol. 135(3):279-87), a penile erection was present when the following is observed: repeated pelvic thrust immediately followed by an upright position, an emerging engorged penis which the rat licks while eating the ejaculate.

[4] = 500 μg TD-1 + 70 μg porcine insulin, topical
[5] = co-administered with 70 μg insulin, 5 hours
[6] = insulin-FITC 10 μg + TD-1, time course
[7] = peptide topically co-administered with PH-1

T1 sequence (P01315 25-54 limits assumed): as the sequence (P01315 25-54 limits assumed) above

Q: Which “direct binding to insulin (conclusion of binding assays)” value (insulin) does the source give for ACSSSPSKHCG [TD-1] here?
A: The value was “does not bind insulin directly”.

Q: And the “insulin bound to precoated TD-1” value (insulin; wells coated with increasing amounts of TD-1, 100 μg insulin)?
A: Its value is “No significant amount of insulin was found to bind”.

Q: What about the “time at which decrease of blood glucose was seen” value [1, 4] of the same sequence?
A: Its value is 2 h.

Q: And the “time of lowest blood glucose level” value [1, 4]?
A: Its value is 8 h.

Q: What about the “lowest blood glucose level” value ([1]; 500 μg TD-1 + 70 μg porcine insulin, topical, at 8 hours) of the same sequence?
A: Its value is < 25 % of the initial blood glucose level.

Q: And the “effect on blood glucose or serum insulin level” value ([1]; 500 μg TD-1 alone, without insulin, topical)?
A: Its value is “no effect”.

Q: And the “Blood Glucose Mean” value ([1]; 5 hr value as % of the 0 hr value, 500 μg peptide + 70 μg insulin topical)?
A: Its value is 38.68%.

Q: And the “TD-1 amount at which transdermal-enhancing effect reached maximum” value [1, 5]?
A: The value was > 500 µg.

Q: And the “TD-1 amount without significant insulin-elevating and glucose-lowering effect” value [1, 5]?
A: The value was < 20 µg.

Q: And the “follicular penetration of insulin-FITC” value (hair follicles; 10 μg insulin-FITC co-administered with enhancer, 2 h, abdominal skin)?
A: Its value is “penetration of insulin-FITC deep into hair follicles”.

Q: And the “relation of waiting period to extent of follicular penetration of insulin-FITC” value (hair follicles; TD-1 5 min, washed, waiting 0-60 min before insulin-FITC)?
A: Its value is “inversely proportional”.

Q: What about the “duration of follicular penetration of insulin-FITC” value (hair follicles; [6]) of the same sequence?
A: Its value is “at least 24 hours”.

Q: What about the “earliest time follicular penetration of insulin-FITC detectable” value (hair follicles; [6]) of the same sequence?
A: The value was 30 min.

Q: And the “time of maximum follicular penetration of insulin-FITC” value (hair follicles; [6])?
A: Its value is 2 h.

Q: And the “^125I-insulin bound to wells precoated with TD-1” value (^125I-insulin)?
A: Its value is “No significant radioactivity above the background level”.

Q: And the “tested rats in which enhanced transdermal penetration of a control phage was observed” value (Male Wistar rats; co-administered with control phage, data not shown)?
A: The value was 20%.

Q: What about the “amount that completely abolished the transdermal activity of PH-1” value (Male Wistar rats; [7]) of the same sequence?
A: The value was “over 5 μg”.

Q: What about the “effect on transdermal activity of phages carrying the TD-2 peptide (PH-1)” value (Male Wistar rats; [7]) of the same sequence?
A: The value was “dose-dependent manner”.

Q: What about the “numbers of PEs, chasing and mounting” value (male Sprague-Dawley rats [2]) of the same sequence?
A: The value was “significantly increased”.

Q: What about the “time at which most PEs occurred” value (male Sprague-Dawley rats [3]; APO 0.8 mg/kg + TD-1 2.0 mg/kg) of the same sequence?
A: The value was “during the second hour”.

Q: And the “number of PEs” value (male Sprague-Dawley rats [3]; TD-1 0.4 mg/kg + APO 0.8 mg/kg)?
A: The value was “did not significantly increase”.

Q: What about the “transdermal-enhancing effect (number of PEs)” value (male Sprague-Dawley rats [3]; TD-1 0.8, 2.0 and 3.2 mg/kg + APO 0.8 mg/kg) of the same sequence?
A: Its value is “reached maximum”.

Q: What about the “effect on APO transdermal delivery (APO-induced penile erections)” value (male Sprague-Dawley rats [3]; peptide 2.0 mg/kg + APO 0.8 mg/kg, cream, 2 h observation) of the same sequence?
A: The value was “facilitates transdermal APO delivery”.
